Structures are written as SMILES. Like-named read-outs stand apart in the source and are kept apart here.

The subject of experiment [1] is TNFα production in human whole blood. Description: Inhibition of the production of TNFα in vitro in human whole blood (Test Examples 1 and 1′). The class given is cell-based. As to conditions: 6 hours at 37° C., plasma TNFα by ELISA. How it is done:
(§1) Inhibition of the Production of the Cytokines IL-1β and TNFα in Vitro in Human Whole Blood
(§2) This test was performed according to the method of Hartman, et al. [D. A. Hartman, S. J. Ochalski and R. P. Carlson; The effects of anti-inflammatory and antiallergic drugs on cytokine release after stimulation of human whole blood by lipopolysaccharide and zymosan A: Inflamm. Res., 44, 269 (1995)].
(§3) Peripheral blood samples were collected in the presence of heparin from healthy adult volunteers. 1000 μl of whole blood were added to an Eppendorf tube to which 2 μl of a dimethyl sulfoxide solution of the test compound had been added in advance, after which 10 μl of lipopolysaccharide (E. coli 026: B6 origin, Difco) were added as a stimulant (final concentration of said lipopolysaccharide: 10 μg/ml). This was mixed well and then incubated for 6 hours at 37° C. in the presence of 5% CO2. At the end of the incubation, the mixture was cooled to 4° C. to stop the reaction, followed immediately by centrifuging for 5 minutes at 14,000 rpm to separate and collect the supernatant plasma. The IL-1β and TNFα produced and released into the plasma were measured using a commercially available enzyme immunoassay (ELISA) kit [Cayman (IL-1β) and Genzyme (TNFα)]. The procedure was also repeated in the absence of test compound. The inhibitory effect [IC50 (μM)] on the production of IL-1β and TNFα was determined from the amounts of the cytokines produced in the presence and absence of the test compound.
(§4) Inhibition of the Production of the Cytokines IL-1β and TNFα In Vitro in Human Whole Blood
as §3, with “O26:” for “026:”, “plasma” for “plasma.”, “kits” for “kit”, “determined by the method of least squares” for “determined”

The test system of experiment [2] is IL-1β production in human whole blood. Description: Inhibition of the production of IL-1β in vitro in human whole blood (Test Examples 1 and 1′). The class given is cell-based. The settings on record: Table 8′, lipopolysaccharide 10 μg/ml, 6 hours at 37° C., plasma IL-1β by ELISA, least squares, read-out: Inhibitory Effect on IL-1β Production (in vitro) IC50. How it is done: as §1, §2, §3, §4
as §3, with “O26:” for “026:”, “plasma” for “plasma.”, “kits” for “kit”, “determined by the method of least squares” for “determined”

The mark [3] stands for this setting: Table 3, lipopolysaccharide 10 μg/ml, read-out: Inhibitory Effect on TNFα Production [IC50 (μM)].
The mark [4] stands for this setting: Table 7′, lipopolysaccharide 10 μg/ml, least squares, read-out: Inhibitory Effect on TNFα Production (in vitro) IC50.

Consider `Fc1ccc(-c2[nH]c(C3CCNCC3)cc2-c2ccncc2)cc1` [Compound A, reference compound], for which the IC50 in experiment [1] (setting [3]) and in experiment [1] (setting [4]) was 1.9 µM each time.

Consider `Fc1ccc(-c2[nH]cc(C3=CC4CCCN4CC3)c2-c2ccncc2)cc1F` (racemic) [Example 92, (±)-2-(3,4-Difluorophenyl)-4-(1,2,3,5,6,8a-hexahydroindolizin-7-yl)-3-(pyridin-4-yl)-1H-pyrrole], for which the half-inhibitory concentration (IC50) in experiment [1] (setting [3]) came out at 0.045 µM. `Fc1ccc(-c2ncn(C3CCNCC3)c2-c2ccncc2)cc1` [Compound B, reference compound]: the IC50 in experiment [1] (setting [3]) and in experiment [1] (setting [4]) was 1.73 µM in each case. For `CCS[C@H]1C[C@H]2C=C(c3c[nH]c(-c4ccc(F)cc4)c3-c3ccncc3)CCN2C1` [Example 36′, 4-[(2S,8aS)-2-Ethylthio-1,2,3,5,6,8a-hexahydroindolizin-7-yl]-2-(4-fluorophenyl)-3-(pyridin-4-yl)-1H-pyrrole], the results for the IC50 in experiment [1] (setting [4]) and in experiment [2] were 0.018 µM and 26 nM, respectively. For `Fc1ccc(-c2[nH]cc(C3=CC4CCCN4CC3)c2-c2ccncc2)cc1` (racemic) [Example 60, (±)-2-(4-Fluorophenyl)-4-(1,2,3,5,6,8a-hexahydroindolizin-7-yl)-3-(pyridin-4-yl)-1H-pyrrole], the half-maximal inhibitory concentration (IC50) in experiment [1] (setting [3]) turned out to be 0.047 µM. As for `CC=C1C[C@H]2C=C(c3c[nH]c(-c4ccc(F)cc4)c3-c3ccncc3)CCN2C1` [Example 37′, 4-[(8aS)-2-Ethylidene-1,2,3,5,6,8a-hexahydroindolizin-7-yl]-2-(4-fluorophenyl)-3-(pyridin-4-yl)-1H-pyrrole], the IC50 in experiment [1] (setting [4]) turned out to be 0.01 µM; in experiment [2] it was 58 nM. `CCCN1CCC(c2c[nH]c(-c3ccc(F)cc3)c2-c2ccncc2)=CC1C` (racemic) [Example 85, (±)-2-(4-Fluorophenyl)-4-(6-methyl-1-propyl-1,2,3,6-tetrahydropyridin-4-yl)-3-(pyridin-4-yl)-1H-pyrrole]: the IC50 in experiment [1] (setting [3]) was found to be 0.44 µM. As to `Fc1ccc(-c2[nH]cc(C3=C[C@@H]4C[C@H](Cl)CN4CC3)c2-c2ccncc2)cc1` [Example 6′, 4-[(2S,8aS)-2-Chloro-1,2,3,5,6,8a-hexahydroindolizin-7-yl]-2-(4-fluorophenyl)-3-(pyridin-4-yl)-1H-pyrrole], in experiment [1] (setting [4]), the 50% inhibitory concentration (IC50) was determined as 0.027 µM. As for `Fc1ccc(-c2[nH]cc(C3=CC4CCCCN4CC3)c2-c2ccncc2)cc1` (racemic) [Example 87, (±)-2-(4-Fluorophenyl)-4-(1,3,4,6,7,9a-hexahydro-2H-quinolizin-8-yl)-3-(pyridin-4-yl)-1H-pyrrole], the IC50 in experiment [1] (setting [3]) was 0.31 µM.

Regarding `FC(F)(F)c1cccc(-c2[nH]cc(C3=CC4CCCN4CC3)c2-c2ccncc2)c1` (racemic) [Example 94, (±)-4-(1,2,3,5,6,8a-Hexahydroindolizin-7-yl)-3-(pyridin-4-yl)-2-(3-trifluoromethylphenyl)-1H-pyrrole], the concentration for half-maximal inhibition (IC50) in experiment [1] (setting [3]) is 0.031 µM.

As to `Fc1ccc(-c2[nH]cc(C3=C[C@@H]4CC5(CN4CC3)OCCO5)c2-c2ccncc2)cc1` [Example 14′, 4-[(8aS)-2,2-Ethylenedioxy-1,2,3,5,6,8a-hexahydroindolizin-7-yl]-2-(4-fluorophenyl)-3-(pyridin-4-yl)-1H-pyrrole], the IC50 amounted to 0.004 µM in experiment [1] (setting [4]) and 9.2 nM in experiment [2]. The like results for `CCCCS[C@H]1C[C@H]2C=C(c3c[nH]c(-c4ccc(F)cc4)c3-c3ccncc3)CCN2C1` [Example 34′, 4-[(2S,8aS)-2-Butylthio-1,2,3,5,6,8a-hexahydroindolizin-7-yl)-2-(4-fluorophenyl)-3-(pyridin-4yl)-1H-pyrrole] were, in that order, 0.046 µM and 49 nM.

For the compound `CCCN1CC=C(c2c[nH]c(-c3ccc(F)cc3)c2-c2ccncc2)CC1C` (racemic) [Example 86, (±)-2-(4-Fluorophenyl)-4-(2-methyl-1-propyl-1,2,3,6-tetrahydropyridin-4-yl)-3-(pyridin-4-yl)-1H-pyrrole], the IC50 in experiment [1] (setting [3]) turned out to be 0.29 µM. For the compound `CO[C@H]1C[C@H]2C=C(c3c[nH]c(-c4ccc(F)cc4)c3-c3ccncc3)CCN2C1` [Example 21′, 2-(4-Fluorophenyl)-4-[(2S,8aS)-2-methoxy-1,2,3,5,6,8a-hexahydroindolizin-7-yl)-3-(pyridin-4-yl)-1H-pyrrole], the 50% inhibitory concentration (IC50) in experiment [1] (setting [4]) stood at 0.046 µM; in experiment [2], 18 nM. In the case of `C=C1C[C@H]2C=C(c3c[nH]c(-c4ccc(F)cc4)c3-c3ccncc3)CCN2C1` [Example 23′, 2-(4-Fluorophenyl)-4-[(8aS)-2-methylidene-1,2,3,5,6,8a-hexahydroindolizin-7-yl]-3-(pyridin-4-yl)-1H-pyrrole], the IC50 turned out to be 0.0037 µM in experiment [1] (setting [4]) and 3.8 nM in experiment [2]. On to `Fc1ccc(-c2[nH]cc(C3=CC4CCC(C3)N4)c2-c2ccncc2)cc1` (racemic) [Example 45, (±)-4-(8-Azabicyclo[3.2.1]oct-2-en-3-yl)-2-(4-fluorophenyl)-3-(pyridin-4-yl)-1H-pyrrole], for which the IC50 in experiment [1] (setting [3]) was 0.14 µM. For `Fc1ccc(-c2[nH]cc(C3=C[C@@H]4CCCN4CC34CC4)c2-c2ccncc2)cc1` [Example 19′, 4-[Cyclopropanespiro-6′-[(8a′S)-1′,2′,3′,5′,6′,8a′-hexahydroindolizin]-7′-yl]-2-(4-fluorophenyl)-3-(pyridin-4-yl)-1H-pyrrole], the figures for the IC50 in experiment [1] (setting [4]) and in experiment [2] were 0.044 µM and 8.3 nM, respectively.

Regarding `CC1(C)C[C@H]2C=C(c3c[nH]c(-c4ccc(F)cc4)c3-c3ccncc3)CCN2C1` [Example 27′], the values for the IC50 in experiment [1] (setting [4]) and in experiment [2] were 0.0038 µM and 1.4 nM, respectively. Consider `Fc1ccc(-c2[nH]cc(C3=CCN(CCc4ccccc4)CC3)c2-c2ccncc2)cc1` [Example 58, 2-(4-Fluorophenyl)-4-(1-phenethyl-1,2,3,6-tetrahydropyridin-4-yl)-3-(pyridin-4-yl)-1H-pyrrole], for which the IC50 in experiment [1] (setting [3]) turned out to be 0.089 µM. In the case of `CO[C@@H]1C[C@H]2C=C(c3c[nH]c(-c4ccc(F)cc4)c3-c3ccncc3)CCN2C1` [Example 2′, 2-(4-Fluorophenyl)-4-[(2R,8aS)-2-methoxy-1,2,3,5,6,8a-hexahydroindolizin-7-yl]-3-(pyridin-4-yl)-1H-pyrrole], the concentration for half-maximal inhibition (IC50) was found to be 0.062 µM in experiment [1] (setting [4]) and 31 nM in experiment [2]. The like results for `CS[C@H]1C[C@H]2C=C(c3c[nH]c(-c4ccc(F)cc4)c3-c3ccncc3)CCN2C1` [Example 29′, 2-(4-Fluorophenyl)-4-[(2S,8aS)-2-methylthio-1,2,3,5,6,8a-hexahydroindolizin-7-yl]-3-(pyridin-4-yl)-1H-pyrrole] were, in that order, 0.0036 µM and 1 nM. On to `Fc1ccc(-c2[nH]cc(C3=C[C@@H]4CCCN4CC3)c2-c2ccncc2)cc1` [Example 83, (−)-2-(4-Fluorophenyl)-4-(1,2,3,5,6,8a-hexahydroindolizin-7-yl)-3-(pyridin-4-yl)-1H-pyrrole], for which the IC50 in experiment [1] (setting [3]) amounted to 0.026 µM. Regarding `Fc1ccc(-c2[nH]cc(C3=CC4CC5(CCCC5)CN4CC3)c2-c2ccncc2)cc1` (racemic) [Example 47′, (±)-4-[Cyclopentanespiro-2′-(1′,2′,3′,5′,6′,8a′-hexahydroindolizin)-7′-yl]-2-(4-fluorophenyl)-3-(pyridin-4-yl)-1H-pyrrole], the IC50 was found to be 0.01 µM in experiment [1] (setting [4]) and 33 nM in experiment [2]. Consider `O[C@@H]1C[C@H]2C=C(c3c[nH]c(-c4ccc(F)cc4)c3-c3ccncc3)CCN2C1` [Example 4′, 2-(4-Fluorophenyl)-4-[(2R,8aS)-2-hydroxy-1,2,3,5,6,8a-hexahydroindolizin-7-yl]-3-(pyridin-4-yl)-1H-pyrrole], for which the figures for the IC50 in experiment [1] (setting [4]) and in experiment [2] were 0.054 µM and 41 nM, respectively.

The values are drawn from US7122666B2, “Heteroaryl-substituted pyrrole derivatives, their preparation and their therapeutic uses” (Sankyo Company, Limited, priority 1999, dated 2006).
